Results as given in patent publication US7649089B2, “Biodegradable oxidized cellulose esters and their uses as microspheres” (University of Iowa Research Foundation, priority 2001, dated 2010).
Converted amounts (≈) assume the structure as drawn.

Key:
[1] = Release studies of CPT microspheres in pH 7.4 PBS at 37 C, sink condition; assay type: physicochemical; conditions: free drug
Experimental: OCA was prepared from oxidized (OC, COOH content 14% w/w) by treatment with a mixture of Ac2O/HOAC/H2SO4. The preparation of OCAM was achieved from a reaction between OCA and methanol using dicyclohexylcarbodiimide and 4,4′-dimethylaminopyridine as the catalysts. OCA and OCAM microspheres containing CPT were prepared by the emulsion/solvent evaporation method using the CH2Cl2—CH3OH mixture as a solvent and polyvinyl alcohol as an emulsifier. Microspheres were characterized by IR, scanning electron and confocal microscopes, and powder X-ray diffractometry. Dissolution studies were performed in pH 7.4 phosphate buffer-saline (PBS) at 37° C.
The release studies were performed under the sink condition in pH 7.4 PBS buffer at 37.0±0.2° C. At predetermined time intervals, 5.0 ml of the release medium was withdrawn. This was immediately replaced with an equal volume of the fresh PBS solution. The removed release medium was appropriated diluted with the mobile phase and analyzed by HPLC.

[2] = Solubility of 5-fluorouracil in pH 7.4 phosphate buffer saline; assay type: physicochemical; conditions: aqueous buffer, pH 7.4 PBS, read-out: solubility in pH 7.4 phosphate buffer saline solution

CC[C@@]1(O)C(=O)OCc2c1cc1n(c2=O)Cc2cc3ccccc3nc2-1 [free CPT, camptothecin]
time to dissolve [1]: about 48 hours

O=c1[nH]cc(F)c(=O)[nH]1 [5-fluorouracil]
solubility [2]: 14.9 mg/mL (≈ 114 mM)
